In ChEMBL document CHEMBL3991601, “The target landscape of clinical kinase drugs” (Science, 2017):
pKd: −log10 of the molar value. The source made the active and inactive calls.

Tests used:
[1] = target: Serine/threonine-protein kinase PLK1 (Homo sapiens, UniProt P53350)
[2] = target: T1, Protein kinase C zeta type (Homo sapiens, UniProt Q05513)
T1 sequence (Q05513 whole entry): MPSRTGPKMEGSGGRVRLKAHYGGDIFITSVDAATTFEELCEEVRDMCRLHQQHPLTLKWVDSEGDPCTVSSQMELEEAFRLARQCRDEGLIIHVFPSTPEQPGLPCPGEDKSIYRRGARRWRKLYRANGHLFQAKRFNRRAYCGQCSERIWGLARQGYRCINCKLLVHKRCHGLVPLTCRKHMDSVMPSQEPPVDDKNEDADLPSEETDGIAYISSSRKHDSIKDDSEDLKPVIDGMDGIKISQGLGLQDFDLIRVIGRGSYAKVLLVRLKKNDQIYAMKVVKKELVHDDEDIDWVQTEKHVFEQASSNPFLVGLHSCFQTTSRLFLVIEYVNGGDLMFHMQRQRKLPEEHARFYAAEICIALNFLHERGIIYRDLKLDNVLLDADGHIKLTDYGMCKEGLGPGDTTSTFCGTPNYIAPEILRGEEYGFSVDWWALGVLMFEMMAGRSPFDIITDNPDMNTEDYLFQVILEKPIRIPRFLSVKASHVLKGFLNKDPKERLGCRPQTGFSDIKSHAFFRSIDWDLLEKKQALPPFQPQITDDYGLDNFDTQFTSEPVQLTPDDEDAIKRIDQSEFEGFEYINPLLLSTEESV

[3] = target: Epidermal growth factor receptor (Homo sapiens, UniProt P00533)
[4] = target: Serine/threonine-protein kinase ATR (Homo sapiens, UniProt Q13535)
[5] = target: Dual specificity protein kinase CLK4 (Homo sapiens, UniProt Q9HAZ1)
[6] = target: T2, Thyroid hormone receptor-associated protein 3 (Homo sapiens, UniProt Q9Y2W1)
T2 sequence (Q9Y2W1 whole entry): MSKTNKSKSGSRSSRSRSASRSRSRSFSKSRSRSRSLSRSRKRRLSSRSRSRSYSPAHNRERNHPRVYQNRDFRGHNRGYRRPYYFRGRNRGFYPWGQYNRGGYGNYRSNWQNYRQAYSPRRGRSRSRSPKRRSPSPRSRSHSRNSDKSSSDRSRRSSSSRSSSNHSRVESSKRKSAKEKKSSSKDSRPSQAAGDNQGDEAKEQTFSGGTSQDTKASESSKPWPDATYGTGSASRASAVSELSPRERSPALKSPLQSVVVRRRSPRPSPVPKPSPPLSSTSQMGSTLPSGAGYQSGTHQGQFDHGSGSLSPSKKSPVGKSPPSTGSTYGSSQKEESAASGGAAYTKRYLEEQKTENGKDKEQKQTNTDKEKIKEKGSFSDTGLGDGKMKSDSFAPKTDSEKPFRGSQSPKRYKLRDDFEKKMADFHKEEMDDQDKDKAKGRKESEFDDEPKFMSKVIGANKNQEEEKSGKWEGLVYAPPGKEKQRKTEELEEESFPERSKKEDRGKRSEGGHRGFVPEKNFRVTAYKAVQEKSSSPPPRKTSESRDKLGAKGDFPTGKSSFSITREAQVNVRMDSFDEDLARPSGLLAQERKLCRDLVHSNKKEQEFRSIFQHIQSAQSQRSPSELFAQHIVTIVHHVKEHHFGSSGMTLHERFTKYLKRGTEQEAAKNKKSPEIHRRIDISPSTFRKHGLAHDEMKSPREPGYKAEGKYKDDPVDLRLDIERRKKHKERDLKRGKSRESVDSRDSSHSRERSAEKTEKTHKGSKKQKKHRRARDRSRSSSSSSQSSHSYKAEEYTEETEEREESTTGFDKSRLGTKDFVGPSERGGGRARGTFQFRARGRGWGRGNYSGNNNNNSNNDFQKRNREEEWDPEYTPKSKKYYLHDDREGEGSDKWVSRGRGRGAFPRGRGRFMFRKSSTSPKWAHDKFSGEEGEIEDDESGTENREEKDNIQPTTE

Obg-like ATPase 1 = Obg-like ATPase 1 (Homo sapiens, UniProt Q9NTK5)
[7] = target: Serine/threonine-protein kinase 24 (Homo sapiens, UniProt Q9Y6E0)
[8] = target: Hepatocyte growth factor receptor (Homo sapiens, UniProt P08581)
[9] = target: T3, Dual specificity protein kinase TTK (Homo sapiens, UniProt P33981)
T3 sequence (P33981 whole entry): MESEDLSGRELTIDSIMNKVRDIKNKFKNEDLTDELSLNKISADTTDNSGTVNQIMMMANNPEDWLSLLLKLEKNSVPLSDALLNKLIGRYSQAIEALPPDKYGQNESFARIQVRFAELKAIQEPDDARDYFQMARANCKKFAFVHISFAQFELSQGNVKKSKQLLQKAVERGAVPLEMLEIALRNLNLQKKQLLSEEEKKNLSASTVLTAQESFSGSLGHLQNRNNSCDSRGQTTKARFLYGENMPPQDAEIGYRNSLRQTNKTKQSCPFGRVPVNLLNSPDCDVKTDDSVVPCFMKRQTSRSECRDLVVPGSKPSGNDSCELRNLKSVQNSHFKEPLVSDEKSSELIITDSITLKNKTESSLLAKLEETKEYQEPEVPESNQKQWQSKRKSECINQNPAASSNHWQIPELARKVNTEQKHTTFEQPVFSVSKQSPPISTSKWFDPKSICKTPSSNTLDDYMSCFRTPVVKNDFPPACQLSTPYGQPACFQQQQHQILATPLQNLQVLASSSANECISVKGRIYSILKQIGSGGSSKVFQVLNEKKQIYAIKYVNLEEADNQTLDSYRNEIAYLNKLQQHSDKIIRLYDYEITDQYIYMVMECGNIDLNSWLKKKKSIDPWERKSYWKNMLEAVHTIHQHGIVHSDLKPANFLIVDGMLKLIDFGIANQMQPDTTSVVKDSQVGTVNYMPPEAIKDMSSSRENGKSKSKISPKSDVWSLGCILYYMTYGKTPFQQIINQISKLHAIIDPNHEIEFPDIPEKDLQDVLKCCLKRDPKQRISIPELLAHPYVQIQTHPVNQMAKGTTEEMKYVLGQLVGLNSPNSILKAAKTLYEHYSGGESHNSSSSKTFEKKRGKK

[10] = target: Membrane-associated progesterone receptor component 1 (Homo sapiens, UniProt O00264)
[11] = target: Serine/threonine-protein kinase pim-2 (Homo sapiens, UniProt Q9P1W9)
[12] = target: Cyclin-dependent kinase 17 (Homo sapiens, UniProt Q00537)
[13] = target: Cyclin-dependent kinase 2 (Homo sapiens, UniProt P24941)
Further: in the data inactive means no Kd found up to 30 µM.

Membrane-associated progesterone receptor component 1, sequence (O00264 whole entry): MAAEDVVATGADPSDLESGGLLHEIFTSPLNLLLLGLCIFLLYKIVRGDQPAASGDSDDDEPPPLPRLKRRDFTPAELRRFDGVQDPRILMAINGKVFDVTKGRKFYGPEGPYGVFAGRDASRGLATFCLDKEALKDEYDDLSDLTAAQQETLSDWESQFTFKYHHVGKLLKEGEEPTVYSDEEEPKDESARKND
Serine/threonine-protein kinase pim-2, sequence (Q9P1W9 whole entry): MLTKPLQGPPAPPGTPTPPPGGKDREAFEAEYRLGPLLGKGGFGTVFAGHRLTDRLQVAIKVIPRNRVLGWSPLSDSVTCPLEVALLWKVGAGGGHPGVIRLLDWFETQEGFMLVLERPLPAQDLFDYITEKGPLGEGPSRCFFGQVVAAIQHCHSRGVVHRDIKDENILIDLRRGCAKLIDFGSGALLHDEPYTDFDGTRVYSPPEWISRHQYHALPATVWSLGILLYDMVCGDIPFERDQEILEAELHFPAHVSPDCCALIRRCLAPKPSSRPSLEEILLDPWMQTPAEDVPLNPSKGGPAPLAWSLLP
Serine/threonine-protein kinase 24, sequence (Q9Y6E0 whole entry): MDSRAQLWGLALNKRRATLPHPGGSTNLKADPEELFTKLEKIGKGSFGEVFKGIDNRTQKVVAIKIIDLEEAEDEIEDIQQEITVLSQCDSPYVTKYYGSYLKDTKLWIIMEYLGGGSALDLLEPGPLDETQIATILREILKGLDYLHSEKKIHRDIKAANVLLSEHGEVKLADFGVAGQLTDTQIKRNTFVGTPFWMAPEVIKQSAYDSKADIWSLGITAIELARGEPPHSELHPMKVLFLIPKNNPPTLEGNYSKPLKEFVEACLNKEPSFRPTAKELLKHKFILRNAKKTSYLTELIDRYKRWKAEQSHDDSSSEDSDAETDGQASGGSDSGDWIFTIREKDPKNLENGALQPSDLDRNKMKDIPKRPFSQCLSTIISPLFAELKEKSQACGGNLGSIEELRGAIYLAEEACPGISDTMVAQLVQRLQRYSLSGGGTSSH
Cyclin-dependent kinase 17, sequence (Q00537 whole entry): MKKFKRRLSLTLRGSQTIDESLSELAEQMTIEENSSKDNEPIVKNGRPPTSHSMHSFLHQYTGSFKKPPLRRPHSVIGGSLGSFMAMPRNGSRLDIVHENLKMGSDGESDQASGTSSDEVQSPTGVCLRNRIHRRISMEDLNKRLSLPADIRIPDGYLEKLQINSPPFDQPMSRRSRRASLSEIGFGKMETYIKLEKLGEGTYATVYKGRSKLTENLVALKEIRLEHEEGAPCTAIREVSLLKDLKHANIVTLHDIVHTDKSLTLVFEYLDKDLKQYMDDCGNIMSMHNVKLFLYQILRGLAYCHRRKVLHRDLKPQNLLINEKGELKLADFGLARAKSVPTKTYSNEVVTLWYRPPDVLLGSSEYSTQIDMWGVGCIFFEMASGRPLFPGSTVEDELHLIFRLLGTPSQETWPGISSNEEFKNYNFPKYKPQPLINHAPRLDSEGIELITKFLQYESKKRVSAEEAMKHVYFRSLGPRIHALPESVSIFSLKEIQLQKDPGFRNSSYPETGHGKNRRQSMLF
Epidermal growth factor receptor, sequence (P00533 whole entry): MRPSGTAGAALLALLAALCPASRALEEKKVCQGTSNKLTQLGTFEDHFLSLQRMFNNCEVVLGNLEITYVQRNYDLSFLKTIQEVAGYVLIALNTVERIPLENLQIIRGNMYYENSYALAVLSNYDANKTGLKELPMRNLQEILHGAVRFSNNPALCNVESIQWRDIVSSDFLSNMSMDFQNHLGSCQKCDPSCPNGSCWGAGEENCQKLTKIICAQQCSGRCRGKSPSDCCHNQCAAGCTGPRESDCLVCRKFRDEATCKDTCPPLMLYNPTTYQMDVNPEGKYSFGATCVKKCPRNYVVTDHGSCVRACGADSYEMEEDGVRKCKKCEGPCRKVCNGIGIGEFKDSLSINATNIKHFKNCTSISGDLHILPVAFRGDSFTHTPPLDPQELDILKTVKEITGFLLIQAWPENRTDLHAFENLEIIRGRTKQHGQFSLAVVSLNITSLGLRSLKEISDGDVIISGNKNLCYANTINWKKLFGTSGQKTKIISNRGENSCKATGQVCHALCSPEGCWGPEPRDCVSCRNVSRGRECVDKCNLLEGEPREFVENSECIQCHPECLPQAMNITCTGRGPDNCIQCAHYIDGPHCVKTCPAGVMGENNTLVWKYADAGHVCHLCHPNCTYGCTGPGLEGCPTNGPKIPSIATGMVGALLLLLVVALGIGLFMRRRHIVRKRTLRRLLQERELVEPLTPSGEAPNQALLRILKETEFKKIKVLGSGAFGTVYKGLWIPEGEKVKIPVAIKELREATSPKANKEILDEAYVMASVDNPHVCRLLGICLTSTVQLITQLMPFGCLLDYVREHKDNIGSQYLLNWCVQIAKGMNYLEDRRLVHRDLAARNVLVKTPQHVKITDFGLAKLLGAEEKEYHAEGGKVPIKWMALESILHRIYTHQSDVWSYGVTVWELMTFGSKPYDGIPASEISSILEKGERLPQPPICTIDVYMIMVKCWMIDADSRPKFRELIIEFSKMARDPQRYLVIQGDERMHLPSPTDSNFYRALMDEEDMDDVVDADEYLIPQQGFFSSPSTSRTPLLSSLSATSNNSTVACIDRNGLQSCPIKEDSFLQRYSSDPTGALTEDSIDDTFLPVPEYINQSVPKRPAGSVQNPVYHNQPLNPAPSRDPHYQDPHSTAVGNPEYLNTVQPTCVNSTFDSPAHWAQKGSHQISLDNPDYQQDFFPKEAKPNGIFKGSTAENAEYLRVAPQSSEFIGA
Hepatocyte growth factor receptor, sequence (P08581 whole entry): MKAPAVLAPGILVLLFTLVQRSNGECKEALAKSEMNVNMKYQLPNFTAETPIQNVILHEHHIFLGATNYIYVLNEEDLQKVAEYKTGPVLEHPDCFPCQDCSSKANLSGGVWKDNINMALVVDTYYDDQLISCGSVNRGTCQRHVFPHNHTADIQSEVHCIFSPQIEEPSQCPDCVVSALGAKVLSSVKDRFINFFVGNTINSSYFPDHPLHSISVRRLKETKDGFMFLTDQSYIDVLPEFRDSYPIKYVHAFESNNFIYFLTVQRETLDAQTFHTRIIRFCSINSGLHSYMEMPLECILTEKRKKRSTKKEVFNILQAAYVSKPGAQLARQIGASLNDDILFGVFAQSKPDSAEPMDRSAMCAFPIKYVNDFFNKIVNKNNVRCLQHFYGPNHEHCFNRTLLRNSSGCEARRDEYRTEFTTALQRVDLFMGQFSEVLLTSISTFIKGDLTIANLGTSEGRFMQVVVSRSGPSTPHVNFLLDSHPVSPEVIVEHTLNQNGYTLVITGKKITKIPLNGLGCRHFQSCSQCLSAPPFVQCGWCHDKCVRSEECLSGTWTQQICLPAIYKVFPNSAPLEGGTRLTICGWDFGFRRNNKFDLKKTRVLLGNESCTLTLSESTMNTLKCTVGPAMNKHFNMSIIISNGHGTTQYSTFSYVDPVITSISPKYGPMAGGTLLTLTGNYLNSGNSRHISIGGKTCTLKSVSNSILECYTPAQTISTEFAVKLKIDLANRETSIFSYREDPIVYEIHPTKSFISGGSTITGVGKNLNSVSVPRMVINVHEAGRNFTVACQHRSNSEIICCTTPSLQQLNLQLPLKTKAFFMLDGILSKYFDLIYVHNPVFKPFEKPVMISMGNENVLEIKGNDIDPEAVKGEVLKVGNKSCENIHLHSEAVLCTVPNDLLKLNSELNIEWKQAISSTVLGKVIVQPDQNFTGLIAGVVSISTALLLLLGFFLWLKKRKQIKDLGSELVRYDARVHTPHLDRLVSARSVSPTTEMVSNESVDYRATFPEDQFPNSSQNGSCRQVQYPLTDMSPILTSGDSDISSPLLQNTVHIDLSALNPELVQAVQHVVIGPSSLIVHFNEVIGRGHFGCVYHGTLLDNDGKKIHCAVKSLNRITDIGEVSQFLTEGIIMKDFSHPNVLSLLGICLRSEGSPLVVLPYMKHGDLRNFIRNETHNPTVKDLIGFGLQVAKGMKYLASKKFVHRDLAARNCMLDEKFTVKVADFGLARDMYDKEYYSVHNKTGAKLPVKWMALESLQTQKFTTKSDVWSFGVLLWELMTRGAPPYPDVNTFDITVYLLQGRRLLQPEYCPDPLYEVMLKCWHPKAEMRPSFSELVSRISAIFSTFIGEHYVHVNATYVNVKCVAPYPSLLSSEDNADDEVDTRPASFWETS
Dual specificity protein kinase CLK4, sequence (Q9HAZ1 whole entry): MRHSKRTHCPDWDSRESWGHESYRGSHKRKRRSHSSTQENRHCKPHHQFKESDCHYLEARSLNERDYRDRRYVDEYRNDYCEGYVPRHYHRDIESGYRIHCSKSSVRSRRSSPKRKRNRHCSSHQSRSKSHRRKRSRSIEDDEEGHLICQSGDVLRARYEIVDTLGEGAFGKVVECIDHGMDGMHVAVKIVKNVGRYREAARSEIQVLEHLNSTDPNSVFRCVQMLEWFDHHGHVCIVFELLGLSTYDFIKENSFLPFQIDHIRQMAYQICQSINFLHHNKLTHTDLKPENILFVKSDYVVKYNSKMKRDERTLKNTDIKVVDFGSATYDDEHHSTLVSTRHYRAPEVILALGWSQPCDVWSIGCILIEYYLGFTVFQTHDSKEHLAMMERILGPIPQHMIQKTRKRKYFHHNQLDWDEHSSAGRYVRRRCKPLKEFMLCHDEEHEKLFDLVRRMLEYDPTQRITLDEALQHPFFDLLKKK
Obg-like ATPase 1, sequence (Q9NTK5 whole entry, looked up): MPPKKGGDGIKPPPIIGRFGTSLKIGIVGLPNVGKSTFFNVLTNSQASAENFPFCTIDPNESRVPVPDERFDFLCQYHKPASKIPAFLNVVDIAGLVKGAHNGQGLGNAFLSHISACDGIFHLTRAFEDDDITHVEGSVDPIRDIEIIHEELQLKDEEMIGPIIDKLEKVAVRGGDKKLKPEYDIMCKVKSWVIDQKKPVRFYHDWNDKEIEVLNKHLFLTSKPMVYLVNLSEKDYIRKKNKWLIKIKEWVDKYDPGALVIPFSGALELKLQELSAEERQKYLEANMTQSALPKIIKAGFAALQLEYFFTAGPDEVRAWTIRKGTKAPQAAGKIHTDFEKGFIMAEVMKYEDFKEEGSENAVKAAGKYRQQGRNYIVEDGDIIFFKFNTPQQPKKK

Row | Kd [1] | Kd [2] | Kd [3] | Kd [4] | Kd [5] | Kd [6] | Kd (Obg-like ATPase 1) | Kd [7] | Kd [8] | Kd [9] | Kd [10] | Kd [11] | Kd [12] | Kd [13] | pKd [10] | pKd [9] | SMILES | pKd [1] | pKd [8]
1 | > 30 µM (inactive) | > 30 µM (inactive) | > 30 µM (inactive) | > 30 µM (inactive) | > 30 µM (inactive) | > 30 µM (inactive) | > 30 µM (inactive) | > 30 µM (inactive) | > 30 µM (inactive) | – | – | – | – | – | – | – | O=C(Nc1ccc(-c2ccnc(Nc3ccc(N4CCOCC4)cc3)n2)cc1)C1CCCN1 (stereo unspecified) [XL-019] | – | –
2 | – | – | – | – | – | > 30 µM (inactive) | > 30 µM (inactive) | > 30 µM (inactive) | – | > 30 µM (inactive) | > 30 µM (inactive) | – | – | – | – | – | Cc1cc(Nc2cc(N3CCN(C)CC3)nc(/C=C/c3ccccc3)n2)n[nH]1 [ENMD-2076] | – | –
3 | > 30 µM (inactive) | > 30 µM (inactive) | > 30 µM (inactive) | > 30 µM (inactive) | > 30 µM (inactive) | > 30 µM (inactive) | – | – | 0.002 µM (active) | – | > 30 µM (inactive) | > 30 µM (inactive) | > 30 µM (inactive) | > 30 µM (inactive) | – | – | Cn1cc(-c2ccc3nnc(C(F)(F)c4ccc5ncccc5c4)n3n2)cn1 [JNJ-38877605] | – | –
4 | – | – | – | – | – | > 30 µM (inactive) | > 30 µM (inactive) | > 30 µM (inactive) | – | – | > 30 µM (inactive) | – | 0.007 µM (active) | – | – | 7.80 | Cc1nc(N)sc1-c1ccnc(Nc2ccc(N3CCOCC3)cc2)n1 [CYC-116] | – | –
5 | > 30 µM (inactive) | > 30 µM (inactive) | > 30 µM (inactive) | > 30 µM (inactive) | > 30 µM (inactive) | > 30 µM (inactive) | – | > 30 µM (inactive) | > 30 µM (inactive) | – | > 30 µM (inactive) | > 30 µM (inactive) | > 30 µM (inactive) | – | – | – | COc1cc(CCc2cc(NC(=O)c3ccc(N4C[C@@H](C)N[C@@H](C)C4)cc3)n[nH]2)cc(OC)c1 [AZD-4547] | – | –

Further lines, the compound ahead of its results:

Row | SMILES | Kd [1] | Kd [2] | Kd [3] | Kd [4] | Kd [5] | Kd [6] | Kd (Obg-like ATPase 1) | Kd [7] | Kd [8] | Kd [9] | Kd [10] | Kd [11] | Kd [12] | Kd [13] | pKd [10] | pKd [9] | pKd [1] | pKd [8]
6 | CCCS(=O)(=O)Nc1ccc(F)c(C(=O)c2c[nH]c3ncc(-c4ccc(Cl)cc4)cc23)c1F [VEMURAFENIB] | > 30 µM (inactive) | – | – | > 30 µM (inactive) | > 30 µM (inactive) | > 30 µM (inactive) | > 30 µM (inactive) | – | > 30 µM (inactive) | – | > 30 µM (inactive) | > 30 µM (inactive) | > 30 µM (inactive) | > 30 µM (inactive) | – | – | – | –
7 | CCn1c(=O)c(-c2cc[nH]n2)cc2c(C)nc(N)nc21 [VOXTALISIB] | > 30 µM (inactive) | > 30 µM (inactive) | > 30 µM (inactive) | – | – | > 30 µM (inactive) | > 30 µM (inactive) | > 30 µM (inactive) | – | – | > 30 µM (inactive) | – | – | > 30 µM (inactive) | – | – | – | –
8 | CN1CC[C@@H](c2c(O)cc(O)c3c(=O)cc(-c4ccccc4Cl)oc23)[C@@H]1CO | – | – | > 30 µM (inactive) | – | > 30 µM (inactive) | > 30 µM (inactive) | > 30 µM (inactive) | > 30 µM (inactive) | – | – | – | > 30 µM (inactive) | > 30 µM (inactive) | > 30 µM (inactive) | – | – | 7.68 | 5.18
9 | O=c1sn(-c2cccc3ccccc23)c(=O)n1Cc1ccccc1 [TIDEGLUSIB] | – | – | > 30 µM (inactive) | – | > 30 µM (inactive) | > 30 µM (inactive) | > 30 µM (inactive) | > 30 µM (inactive) | – | > 30 µM (inactive) | > 30 µM (inactive) | – | > 30 µM (inactive) | > 30 µM (inactive) | – | – | – | –
10 | CC[C@H](Nc1ncnc2[nH]cnc12)c1nc2cccc(F)c2c(=O)n1-c1ccccc1 [IDELALISIB] | > 30 µM (inactive) | – | > 30 µM (inactive) | > 30 µM (inactive) | > 30 µM (inactive) | > 30 µM (inactive) | – | > 30 µM (inactive) | – | – | > 30 µM (inactive) | – | > 30 µM (inactive) | > 30 µM (inactive) | – | – | – | –
11 | COC(=O)N[C@@H](C)CNc1nccc(-c2cn(C(C)C)nc2-c2cc(Cl)cc(NS(C)(=O)=O)c2F)n1 [ENCORAFENIB] | – | – | > 30 µM (inactive) | > 30 µM (inactive) | > 30 µM (inactive) | > 30 µM (inactive) | > 30 µM (inactive) | > 30 µM (inactive) | > 30 µM (inactive) | > 30 µM (inactive) | – | – | > 30 µM (inactive) | > 30 µM (inactive) | 6.69 | – | – | –
12 | COCCNCc1ccc(-c2cc3nccc(Oc4ccc(NC(=S)NC(=O)Cc5ccc(F)cc5)cc4F)c3s2)nc1 [GLESATINIB] | > 30 µM (inactive) | > 30 µM (inactive) | > 30 µM (inactive) | – | > 30 µM (inactive) | > 30 µM (inactive) | > 30 µM (inactive) | > 30 µM (inactive) | – | – | > 30 µM (inactive) | > 30 µM (inactive) | > 30 µM (inactive) | > 30 µM (inactive) | – | – | – | –
13 | O=C(c1ccc(F)c(F)c1Nc1ccc(I)cc1F)N1CC(O)([C@@H]2CCCCN2)C1 [COBIMETINIB] | > 30 µM (inactive) | – | > 30 µM (inactive) | > 30 µM (inactive) | > 30 µM (inactive) | > 30 µM (inactive) | – | > 30 µM (inactive) | > 30 µM (inactive) | – | > 30 µM (inactive) | – | > 30 µM (inactive) | > 30 µM (inactive) | – | – | – | –
14 | COc1cc2nccc(Oc3ccc(NC(=O)Nc4cc(C)on4)c(Cl)c3)c2cc1OC [TIVOZANIB] | > 30 µM (inactive) | > 30 µM (inactive) | – | > 30 µM (inactive) | > 30 µM (inactive) | > 30 µM (inactive) | > 30 µM (inactive) | > 30 µM (inactive) | – | – | > 30 µM (inactive) | > 30 µM (inactive) | > 30 µM (inactive) | > 30 µM (inactive) | – | – | – | –
